Experimental data as given in patent US20240390328A1, “PHARMACEUTICAL COMPOSITION CONTAINING AS ACTIVE INGREDIENT COMPOUND CONJUGATED TO G4 STRUCTURES OF CORONAVIRUSES FOR PREVENTION OR TREATMENT OF CORONAVIRUS INFECTIOUS DISEASES” (priority 2020, published 2024).
Where two headings read alike, the source gives them in different places.

Legend:
SARS-COV-2 [1] = test: microbe, parasite or virus in culture; assay type: cell-based; conditions: for suppression of SARS-COV-2 infection (N protein expression), in words: 0.08 to 50 μM; for IC50: read-out: IC50, suppressing SARS-COV-2 infection (N protein expression)
HCoV-OC43 = HCoV-OC43 dose response curve analysis, virion production (plaque assay), HCT-8 cells; assay type: cell-based; conditions: 0.05 MOI, 72 hours after infection
N1-WT-G4-644 (Nsp1 G4) = test: In-vitro transcription/translation (IVT) analysis, EYFP reporter western blot, N1-WT-G4-644; assay type: biochemical, SARS-COV-2; conditions: N1-WT-G4-644, compound at 5 μM
N1-WT-G4-3467 (Nsp3 G4) = test: In-vitro transcription/translation (IVT) analysis, EYFP reporter western blot, N1-WT-G4-3467; assay type: biochemical, SARS-COV-2; conditions: N1-WT-G4-3467, compound at 50 μM
[2] = system: SARS-COV-2 RNA G4, position 353 (NsP1); test: CD thermal melting analysis, G4 No. 1; assay type: binding; conditions: G4 No. 1, position 353, NsP1; 15 μM RNA G4, 30 μM compound
Procedure: (§1) For melting, the samples were heated at 25 to 95° C. at 2° C./min with a data pitch of 0.5° C. CD melting analyses were performed with and without G4-binding compounds. The ratio of RNA: G4-binding compound was set to a molar ratio of 1:2. 15 μM RNA G4 was treated with 30 μM G4-binding compound and incubated at room temperature in a buffer comprising 10 mM Tris-HCl (pH 7.5) and 100 mM KCl for 30 minutes. Ellipticity was measured at 265 nm. Thereafter, data were normalized and plotted in OriginPro 2017 to calculate Tm values.
(§2) In addition, 15 μM RNA G4 was treated with 30 μM compound and incubated, and a CD thermal melting curve of RNA G4 (15 μM) was obtained in the presence or absence of the G4-binding compound. Furthermore, the effect of G4-binding compounds on the stability of SARS-COV-2 G4 was confirmed by measuring the difference in melting temperature (ΔTm). The results are illustrated in FIGS. 6A and 6B.

[3] = system: SARS-COV-2 RNA G4, position 26746 (Membrane protein); test: CD thermal melting analysis, G4 No. 21; assay type: binding; conditions: G4 No. 21, position 26746, Membrane protein; 15 μM RNA G4, 30 μM compound
Procedure: as §1, §2

[4] = system: SARS-COV-2 RNA G4, position 644 (NsP1); test: CD thermal melting analysis, G4 No. 2; assay type: binding; conditions: G4 No. 2, position 644, NsP1; 15 μM RNA G4, 30 μM compound
Procedure: as §1, §2

HEK293T cells = test: Cell viability analysis (EZ Cytox), HEK293T cells; assay type: cell-based, Human; conditions: at 75 µM, after 48 hours
Procedure: (§3) Human embryonic kidney (HEK293T) cells and Vero cells were maintained in high-glucose Dulbecco's Modified Eagle's Medium (DMEM) supplemented with 10% fetal bovine serum (FBS) and 1% penicillin-streptomycin, and cultured in a humidified incubator at 37° C. and 5% CO2.
(§4) Cytotoxicity was analyzed using an EZ Cytox assay kit (DogenBio, Korea). HEK293T and Vero cells were put into a 96-well plate at a density of 2×10^4 cells/well in a medium volume of 100 μl/well and cultured at 37° C. for 24 hours. After 24 hours, the cells were treated with the G4-binding compound at various concentrations (0.1, 0.5, 1, 2.5, 5.5, 7.5, 10, 25, 50, and 75 μM) and cultured at 37° C. for 24 hours or 48 hours. Cell viability (%) was calculated by measuring the absorbance value at 455 nm (Luminescence multi-mode microplate reader Synergy™ Neo2) and using the following Equation 1. All experiments were performed in triplicate, and cells untreated with the compound were used as a control. DMEM with the EZ Cytox reagent was used as a blank.
(§5) The toxicity of PDS and PhenDC3 was confirmed in HEK293T cells and Vero cells. The results are illustrated in FIGS. 7A to 7D.

[5] = system: SARS-COV-2 RNA G4, position 25197 (Surface glycoprotein); test: CD thermal melting analysis, G4 No. 19; assay type: binding; conditions: G4 No. 19, position 25197, Surface glycoprotein; 15 μM RNA G4, 30 μM compound
Procedure: as §1, §2

Vero cells = test: Cell viability analysis (EZ Cytox), Vero cells; assay type: cell-based; conditions: up to 75 μM after 48 hours
Procedure: as §3, §4, §5

[6] = system: SARS-COV-2 RNA G4, position 18296 (NsP12); test: CD thermal melting analysis, G4 No. 15; assay type: binding; conditions: G4 No. 15, position 18296, NsP12; 15 μM RNA G4, 30 μM compound
Procedure: as §1, §2

[7] = system: SARS-COV-2 RNA G4, position 14947 (NsP12); test: CD thermal melting analysis, G4 No. 12; assay type: binding; conditions: G4 No. 12, position 14947, NsP12; 15 μM RNA G4, 30 μM compound
Procedure: as §1, §2

N1-WT-G4-353 (Nsp1 G4) = test: In-vitro transcription/translation (IVT) analysis, EYFP reporter western blot, N1-WT-G4-353; assay type: biochemical, SARS-COV-2
[8] = system: SARS-COV-2 RNA G4, position 4261 (NsP3); test: CD thermal melting analysis, G4 No. 8; assay type: binding; conditions: G4 No. 8, position 4261, NsP3; 15 μM RNA G4, 30 μM compound
Procedure: as §1, §2

[9] = system: SARS-COV-2 RNA G4, position 2714 (NsP2 + NsP3); test: CD thermal melting analysis, G4 No. 5; assay type: binding; conditions: G4 No. 5, position 2714, NsP2 + NsP3; 15 μM RNA G4, 30 μM compound
Procedure: as §1, §2

SARS-COV-2 [10] = test: microbe, parasite or virus in culture; assay type: cell-based; conditions: Vero cells, read-out: IC50, virion production
[11] = system: 25 G4s predicted for SARS-COV-2; test: CD thermal melting analysis, comparison of ΔTm over all G4s; assay type: binding
[12] = system: SARS-COV-2 RNA G4, position 1574 (NsP2); test: CD thermal melting analysis, G4 No. 4; assay type: binding; conditions: G4 No. 4, position 1574, NsP2; 15 μM RNA G4, 30 μM compound
Procedure: as §1, §2

[13] = system: SARS-COV-2 RNA G4, position 10261 (NsP5); test: CD thermal melting analysis, G4 No. 10; assay type: binding; conditions: G4 No. 10, position 10261, NsP5; 15 μM RNA G4, 30 μM compound
Procedure: as §1, §2

N1-Mut-G4-3467 = assay type: biochemical, SARS-COV-2; conditions: N1-Mut-G4-3467, 5, 15, 25 and 50 μM
[14] = system: SARS-COV-2 RNA G4, position 28781 (Nucleocapsid protein); test: CD thermal melting analysis, G4 No. 22; assay type: binding; conditions: G4 No. 22, position 28781, Nucleocapsid protein; 15 μM RNA G4, 30 μM compound
Procedure: as §1, §2

[15] = system: SARS-COV-2 RNA G4, position 3467 (NsP3); test: CD thermal melting analysis, G4 No. 6; assay type: binding; conditions: G4 No. 6, position 3467, NsP3; 15 μM RNA G4, 30 μM compound
Procedure: as §1, §2

[16] = system: SARS-COV-2 RNA G4, position 28903 (Nucleocapsid protein); test: CD thermal melting analysis, G4 No. 23; assay type: binding; conditions: G4 No. 23, position 28903, Nucleocapsid protein; 15 μM RNA G4, 30 μM compound
Procedure: as §1, §2

[17] = system: SARS-COV-2 RNA G4, position 1463 (NsP2); test: CD thermal melting analysis, G4 No. 3; assay type: binding; conditions: G4 No. 3, position 1463, NsP2; 15 μM RNA G4, 30 μM compound
Procedure: as §1, §2

[18] = Severe acute respiratory syndrome coronavirus 2, Vero cells, 0.0125 MOI, 24 hours

Compound: CN(C)c1ccc(Nc2c3ccc(NC(=O)CCN4CCCC4)cc3nc3cc(NC(=O)CCN4CCCC4)ccc23)cc1 [BRACO19, N-[9-[4-(dimethylamino)anilino]-6-(3-pyrrolidin-1-ylpropanoylamino)acridin-3-yl]-3-pyrrolidin-1-ylpropanamide]
- suppression of SARS-COV-2 infection (N protein expression), in words (SARS-COV-2 [1]; Vero cells): suppressed SARS-COV-2 infection at high concentrations

Compound: CCC1=C(C)c2cc3[nH]c(cc4nc(cc5c(CC)c(C)c(cc1n2)n5C)C(C)=C4CCC(=O)O)c(CCC(=O)O)c3C [NMM, 3-[18-(2-carboxyethyl)-7,12-diethyl-3,8,13,17,22-pentamethyl-23H-porphyrin-2-yl]propanoic acid]
- IC50 (HCoV-OC43): 2.1 µM
- suppression of SARS-COV-2 infection (N protein expression), in words (SARS-COV-2 [1]; Vero cells): suppressed SARS-COV-2 infection at high concentrations

Compound: C[n+]1cc(NC(=O)c2ccc3ccc4ccc(C(=O)Nc5cc6ccccc6[n+](C)c5)nc4c3n2)cc2ccccc21 [PhenDC3, 2-N, 9-N-bis(1-methylquinolin-1-ium-3-yl)-1,10-phenanthroline-2,9-dicarboxamide]
- EYFP expression reduced by (N1-WT-G4-644 (Nsp1 G4)): 50%
- reduction in EYFP expression (N1-WT-G4-3467 (Nsp3 G4)): 70%
- Tm in ° C. with compound [2]: 82.00 °C
- ΔTm [2]: 10.41 °C
- Tm in ° C. with compound [3]: 79.68 °C
- ΔTm [3]: 17.02 °C
- Tm in ° C. with compound [4]: 71.44 °C
- ΔTm [4]: 23.71 °C
- reduction in viability, HEK293T cells (HEK293T cells): 25%
- Tm in ° C. with compound [5]: 57.51 °C
- ΔTm [5]: −13.68 °C
- cytotoxicity in Vero cells (Vero cells): no cytotoxicity was observed
- Tm in ° C. with compound [6]: 86.32 °C
- ΔTm [6]: 27.49 °C
- Tm in ° C. with compound [7]: 82.96 °C
- ΔTm [7]: 25.75 °C
- EYFP expression reduced by (N1-WT-G4-353 (Nsp1 G4); N1-WT-G4-353, compound at 50 μM): 90%
- suppressing EYFP reporter expression (N1-WT-G4-353 (Nsp1 G4); N1-WT-G4-353, concentrations less than 50 μM): not effective
- Tm in ° C. with compound [8]: 85.41 °C
- ΔTm [8]: 35.1 °C
- Tm in ° C. with compound [9]: 91.7 °C
- ΔTm [9]: 20.56 °C
- IC50 (SARS-COV-2 [10]; 24 hours after infection): 24.5 µM
- IC50 (SARS-COV-2 [10]; 48 hours after infection): 23.2 µM
- effect on stability of SARS-COV-2 G4 (ΔTm), in words ([11]; 15 μM RNA G4, 30 μM compound, FIGS. 6A and 6B): significantly stabilized most G4s
- proportion of the G4s with ΔTm>20° C. ([11]; among the 25 G4s predicted for SARS-COV-2): 72%
- number of G4s Destabilized ([11]; of the 25 SARS-COV-2 G4s): 2
- Tm in ° C. with compound [12]: 47.74 °C
- ΔTm [12]: −5.64 °C
- Tm in ° C. with compound [13]: 63.49 °C
- ΔTm [13]: 15.6 °C
- EYFP expression, concentration-dependent suppression (N1-Mut-G4-3467): not suppressed
- Tm in ° C. with compound [14]: 70.40 °C
- ΔTm [14]: 5.7 °C
- Tm in ° C. with compound [15]: 98.81 °C
- ΔTm [15]: 33.25 °C
- Tm in ° C. with compound [16]: 60.21 °C
- ΔTm [16]: 3.1 °C
- Tm in ° C. with compound [17]: 91.3 °C
- ΔTm [17]: 35.78 °C

Compound: C[n+]1ccccc1-c1c2nc(c(-c3cccc[n+]3C)c3ccc([nH]3)c(-c3cccc[n+]3C)c3nc(c(-c4cccc[n+]4C)c4ccc1[nH]4)C=C3)C=C2 [TMPyP2, 5,10,15,20-tetrakis(1-methylpyridin-1-ium-2-yl)-21,23-dihydroporphyrin]
- IC50 (HCoV-OC43): 11.7 µM

Compound: C[n+]1ccc(-c2c3nc(c(-c4cc[n+](C)cc4)c4ccc([nH]4)c(-c4cc[n+](C)cc4)c4ccc([nH]4)c(-c4cc[n+](C)cc4)c4nc2C=C4)C=C3)cc1 [TMPyP4, 5,10,15,20-tetrakis(1-methylpyridin-1-ium-4-yl)-21,23-dihydroporphyrin]
- IC50 (HCoV-OC43): 2.8 µM

Compound: CCN(CC)CCCC(C)Nc1ccnc2cc(Cl)ccc12 (stereo not drawn) [chloroquine, reference compound]
- IC50 (SARS-COV-2 [1]; [18]): 9.63 µM

Compound: Cc1cccc(C)c1OCC(=O)N[C@@H](Cc1ccccc1)[C@@H](O)C[C@H](Cc1ccccc1)NC(=O)[C@H](C(C)C)N1CCCNC1=O [lopinavir, reference compound]
- IC50 (SARS-COV-2 [1]; [18]): 12.1 µM

Compound: CCC(CC)COC(=O)[C@H](C)N[P@](=O)(OC[C@H]1O[C@@](C#N)(c2ccc3c(N)ncnn23)[C@H](O)[C@@H]1O)Oc1ccccc1 [remdesivir, reference compound]
- IC50 (SARS-COV-2 [1]; Severe acute respiratory syndrome coronavirus 2, Vero, 24 h): 8.78 µM
